Results on 8 compounds are retold here after patent US11331314B2, “Amine substituted triazole derivatives and uses thereof” (Bayer Pharma Aktiengesellschaft, priority 2017, dated 2022).

The target of one assay is human V1a receptor (Homo sapiens, UniProt P37288). As to the kind of experiment: Cellular in vitro assay for determining vasopressin receptor activity, V1a receptor cell line (photoprotein luminescence). The class given is cell-based. To be noted: for IC50: CHO cell line transfected with the human V1a receptor, agonist [Arg8]-vasopressin at EC50 concentration, read-out: IC50 hV1a; for ratio IC50 hV2/hV1a: selectivity ratio of the cellular IC50 values. The essentials: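 CHO K1 cells stably expressing human V1a receptor with aequorin photoprotein, loaded overnight with coelenterazine. Compounds preincubated 10 min at various concentrations, then challenged with [Arg^8]-vasopressin at EC50 concentration. Calcium-driven luminescence read immediately; IC50 values derived.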
Chain of human V1a receptor (P37288 whole entry): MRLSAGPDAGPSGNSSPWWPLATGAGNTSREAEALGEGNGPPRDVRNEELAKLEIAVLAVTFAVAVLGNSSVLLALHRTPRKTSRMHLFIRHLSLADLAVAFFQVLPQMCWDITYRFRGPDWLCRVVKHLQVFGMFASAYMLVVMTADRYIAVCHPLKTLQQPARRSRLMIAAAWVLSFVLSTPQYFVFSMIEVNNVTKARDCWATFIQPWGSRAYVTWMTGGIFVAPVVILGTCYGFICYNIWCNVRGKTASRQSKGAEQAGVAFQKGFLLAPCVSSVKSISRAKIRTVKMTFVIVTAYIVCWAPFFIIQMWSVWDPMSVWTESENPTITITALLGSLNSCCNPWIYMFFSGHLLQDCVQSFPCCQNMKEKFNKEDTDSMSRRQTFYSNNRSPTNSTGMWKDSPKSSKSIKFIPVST

The next assay concerns the target T1, human V2 receptor (Homo sapiens, UniProt P30518).
T1 construct: expressed in transfected cells; host or cells: CHO K1 (ATCC) expressing firefly luciferase under a CRE-responsive promoter
The assay is described as follows: Cellular in vitro assay for determining vasopressin receptor activity, V2 receptor cell line (CRE-luciferase). The class given is cell-based. To be noted: CHO cell line transfected with the human V2 receptor; agonist [Arg8]-vasopressin at EC50 concentration; read-out: IC50 hV2.

T1 sequence (P30518 whole entry): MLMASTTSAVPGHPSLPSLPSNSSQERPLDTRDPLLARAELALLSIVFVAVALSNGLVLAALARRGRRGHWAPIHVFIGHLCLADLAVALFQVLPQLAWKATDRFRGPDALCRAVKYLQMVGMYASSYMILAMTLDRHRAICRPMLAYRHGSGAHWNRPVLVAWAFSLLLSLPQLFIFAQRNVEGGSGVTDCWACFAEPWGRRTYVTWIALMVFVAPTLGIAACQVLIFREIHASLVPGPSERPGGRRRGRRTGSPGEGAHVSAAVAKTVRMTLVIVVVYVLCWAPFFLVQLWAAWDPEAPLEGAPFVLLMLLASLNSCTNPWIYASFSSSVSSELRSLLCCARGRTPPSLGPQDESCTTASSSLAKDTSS

On to `CC(F)(F)CNc1nc(Cn2nc(-c3ccc(Cl)cc3)n(C[C@H](O)C(F)(F)F)c2=O)nn1-c1ccccc1Cl` [Example 23, 5-(4-Chlorophenyl)-2-({1-(2-chlorophenyl)-5-[(2,2-difluoropropyl)amino]-1H-1,2,4-triazol-3-yl}methyl)-4-[(2S)-3,3,3-trifluoro-2-hydroxypropyl]-2,4-dihydro-3H-1,2,4-triazol-3-one], for which the IC50 (in general, the concentration that gives 50% inhibition) on human V1a receptor came to 1.25 nM; at human V2 receptor it was 1.2 nM. For the same compound, the “ratio IC50 hV2/hV1a” value at human V1a receptor amounted to 1.0.

`CS(=O)(=O)NCCNc1nc(Cn2nc(-c3ccc(Cl)cc3)n(C[C@H](O)C(F)(F)F)c2=O)nn1-c1ccccc1Cl` [Example 24, N-(2-{[1-(2-Chlorophenyl)-3-({3-(4-chlorophenyl)-5-oxo-4-[(2S)-3,3,3-trifluoro-2-hydroxypropyl]-4,5-dihydro-1H-1,2,4-triazol-1-yl}methyl)-1H-1,2,4-triazol-5-yl]amino}ethyl)methanesulfonamide]: at human V1a receptor, the IC50 turned out to be 0.4 nM and the “ratio IC50 hV2/hV1a” value is listed as 2.6. Besides, on human V2 receptor, the IC50 was 1.02 nM.

In the case of `O=c1n(Cc2nc(NCCN3CCCCS3(=O)=O)n(-c3ccccc3Cl)n2)nc(-c2ccc(Cl)cc2)n1C[C@H](O)C(F)(F)F` [Example 25, 5-(4-Chlorophenyl)-2-{[1-(2-chlorophenyl)-5-{[2-(1,1-dioxido-1,2-thiazinan-2-yl)ethyl]amino}-1H-1,2,4-triazol-3-yl]methyl}-4-[(2S)-3,3,3-trifluoro-2-hydroxypropyl]-2,4-dihydro-3H-1,2,4-triazol-3-one], at human V1a receptor, the IC50 came to 0.43 nM and the “ratio IC50 hV2/hV1a” value is recorded as 2.0. Moreover, the IC50 at human V2 receptor was determined as 0.86 nM.

Turning to `CC(C)(CNc1nc(Cn2nc(-c3ccc(Cl)cc3)n(C[C@H](O)C(F)(F)F)c2=O)nn1-c1ccccc1Cl)NS(C)(=O)=O` [Example 26], on human V1a receptor, the IC50 amounted to 0.4 nM and the “ratio IC50 hV2/hV1a” value is on record as 5.6. Moreover, the IC50 on human V2 receptor was determined as 2.2 nM.

With `O=c1n(Cc2nc(N3CCC(O)(C(F)(F)F)CC3)n(-c3ccccc3Cl)n2)nc(-c2ccc(Cl)cc2)n1C[C@H](O)C(F)(F)F` [Example 28, 5-(4-Chlorophenyl)-2-({1-(2-chlorophenyl)-5-[4-hydroxy-4-(trifluoromethyl)piperidin-1-yl]-1H-1,2,4-triazol-3-yl}methyl)-4-[(2S)-3,3,3-trifluoro-2-hydroxypropyl]-2,4-dihydro-3H-1,2,4-triazol-3-one], at human V1a receptor, the IC50 worked out at 0.66 nM and the “ratio IC50 hV2/hV1a” value stood at 15.3. Besides, at human V2 receptor, the IC50 worked out at 10 nM.

In the case of `CC(C)(N)CNc1nc(Cn2nc(-c3ccc(Cl)cc3)n(C[C@H](O)C(F)(F)F)c2=O)nn1-c1ccccc1Cl` [Example 32, 2-({5-[(2-Amino-2-methylpropyl)amino]-1-(2-chlorophenyl)-1H-1,2,4-triazol-3-yl}methyl)-5-(4-chlorophenyl)-4-[(2S)-3,3,3-trifluoro-2-hydroxypropyl]-2,4-dihydro-3H-1,2,4-triazol-3-one], at human V1a receptor, the IC50 turned out to be 0.35 nM and the “ratio IC50 hV2/hV1a” value was 71.2. At human V2 receptor, the IC50 worked out at 24.8 nM.

On to `O=c1n(Cc2nc(N3CCC(F)(F)CC3)n(-c3ccccc3Cl)n2)nc(-c2ccc(Cl)cc2)n1C[C@H](O)C(F)(F)F` [Example 34, 5-(4-Chlorophenyl)-2-{[1-(2-chlorophenyl)-5-(4,4-difluoropiperidin-1-yl)-1H-1,2,4-triazol-3-yl]methyl}-4-[(2S)-3,3,3-trifluoro-2-hydroxypropyl]-2,4-dihydro-3H-1,2,4-triazol-3-one], for which, at human V1a receptor, the 50% inhibitory concentration (IC50) was found to be 0.46 nM and the “ratio IC50 hV2/hV1a” value is given as 19.0. Besides, the IC50 on human V2 receptor was determined as 8.75 nM.

`O=C1NCC2(CN(c3nc(Cn4nc(-c5ccc(Cl)cc5)n(C[C@H](O)C(F)(F)F)c4=O)nn3-c3ccccc3Cl)C2)N1` [Example 35, 2-[1-(2-Chlorophenyl)-3-({3-(4-chlorophenyl)-5-oxo-4-[(2S)-3,3,3-trifluoro-2-hydroxypropyl]-4,5-dihydro-1H-1,2,4-triazol-1-yl}methyl)-1H-1,2,4-triazol-5-yl]-2,5,7-triazaspiro[3.4]octan-6-one]: at human V1a receptor, the IC50 was 0.48 nM and the “ratio IC50 hV2/hV1a” value is given as 12.6. On human V2 receptor, the IC50 was determined as 6.05 nM.
